Measurements published in PubChem BioAssay (NCI).
Values joined by “and” are separate entries in the source; they are usually repeats but may differ in a detail not shown here. Equal values may be shown once.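 Protocol summary: plate cells (96-well), add compound at 5 concentrations, incubate 48 h, interpolate endpoints linearly. At the GI50, growth is halved. Definition used: TGI = concentration required for complete inhibition of growth.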

Tests used:
Test in all cases: growth of human tumour cells (NCI), 48 h
[1] = tested on: SW-620 colon
[2] = tested on: HL-60(TB) leukemia
[3] = tested on: A549 NSCLC
[4] = tested on: SF-268 CNS
[5] = tested on: HOP-92 NSCLC
[6] = tested on: SR leukemia
[7] = tested on: A498 renal
[8] = tested on: 786-0 renal
[9] = tested on: SNB-75 CNS
[10] = tested on: LOX IMVI melanoma

Row | Structure (SMILES) | TGI [1] | TGI [2] [µM] | TGI [3] | TGI [4] | TGI [5] [µM] | TGI [6] | TGI [7] [µM] | TGI [8] | TGI [9] [µM] | TGI [10] | GI50 [1] [µM] | GI50 [2] [µM] | GI50 [3] [µM] | GI50 [4] [µM] | GI50 [5] [µM] | GI50 [6] [µM] | GI50 [7] [µM] | GI50 [8] [µM] | GI50 [10] [µM] | GI50 [9] [µM]
1 | CC1CN1P1(N2CC2C)=NP(N2CC2C)(N2CC2C)=NP(N2CC2C)(N2CC2C)=N1 (stereo not drawn) | > 50 µM | > 50 | > 50 µM | > 50 µM | > 50 | > 50 µM | > 50 | > 50 µM | > 50 |  |  |  |  |  |  |  |  |  |  | 
2 | O=C(O)C(Cc1ccccc1)N1C(=O)N/C(=C\c2ccc(F)cc2)C1=O (stereo not drawn) | > 100 µM | > 100 | > 100 µM |  | > 100 | > 100 µM |  | > 100 µM | > 100 | > 100 µM |  |  |  |  |  |  |  |  |  | 
3 | COc1ccc2c(c1)C1(C=N2)CCN(C(C)=O)CC1 | > 100 µM | > 100 | > 100 µM | > 100 µM | > 100 |  | > 100 | > 100 µM | > 100 | > 100 µM |  |  |  |  |  |  |  |  |  | 
4 | C=CCc1cc(OC)c2c(c1)C(O)CC(c1ccc(OC)c(OC)c1)O2 (stereo not drawn) | > 100 µM | > 100 | > 100 µM | > 100 µM | > 100 | > 100 µM |  | > 100 µM | > 100 |  |  |  |  |  |  |  |  |  |  | 
5 | CC(C)=CCCc1c(C)ccc2c1C(=O)C(=O)C(C(C)C)=C2 | 7.05 µM | 5.03 | > 22 µM | 11.8 µM | 6.43 | 14.9 µM | > 22 | 7.07 µM | > 22 |  |  |  |  |  |  |  |  |  |  | 
6 | O=[S@@]1Nc2ccc(Br)cc2S1 | > 100 µM | 65.2 | > 100 µM | > 100 µM | > 100 | > 100 µM |  | > 100 µM | > 100 | > 100 µM |  |  |  |  |  |  |  |  |  | 
7 | CC(=O)OC(C)C(=O)C1c2cccc(O)c2C(=O)c2c(O)cc(C)cc21 (stereo not drawn) | 1.71 µM | 0.847 | 1.11 µM | 1.5 µM | 1.02 |  | 3.68 | 2.28 µM | 1.83 | 1.82 µM |  |  |  |  |  |  |  |  |  | 
8 | O=C(O)CCSC(=O)Nc1cccc(F)c1 | > 100 µM | > 100 | > 100 µM | > 100 µM |  | > 100 µM | > 100 | > 100 µM |  | > 100 µM |  |  |  |  |  |  |  |  |  | 
9 | COc1ccc(C2=CSc3cc(Cl)c(C)cc3S(=O)(=O)N2C(C)=O)cc1 | > 100 µM | 43.7 | 65 µM | > 100 µM | > 100 | > 100 µM | > 100 | > 100 µM |  | > 100 µM | 38.7 | 17.2 | 27.4 | 29.1 | 21.9 | 14.6 | 59.5 | 39.1 | 21 | 
10 | CNC(=O)c1cc(Oc2ccc3nc(NC(=O)Nc4ccc(Cl)c(C(F)(F)F)c4)sc3c2)ccn1 | > 100 µM | > 100 |  | 16.4 µM | 3.24 | 9.1 µM | 12.2 | 3.4 µM | 3.24 | > 100 µM | 2.99 | > 100 |  | 2.34 | 1.15 | 0.412 | 2.49 | 1.79 | 2.68 | 1.52
11 | CCOC(=O)C(Sc1ccccc1)c1c(OC)cc(=O)oc1/C=[N+](/[O-])c1ccc(N(C)C)cc1 (stereo not drawn) | 32.2 µM |  | > 100 µM | > 100 µM |  |  | > 100 | 42.4 µM | 76.4 | 26.6 µM |  |  |  |  |  |  |  |  |  | 
12 | CCNC1C2(CCCCC2)NC(=O)C12CCCCC2 (stereo not drawn) | > 100 µM | > 100 | > 100 µM |  |  |  | > 100 | > 100 µM | > 100 |  |  |  |  |  |  |  |  |  |  | 
13 | Oc1ccc(Cl)cc1-c1cc(-c2ccccc2Cl)[nH]n1 | > 100 µM | > 100 | > 100 µM | > 100 µM |  | > 100 µM | > 100 | > 100 µM | > 100 |  | 77.2 | 4.22 | 4.74 | 7.71 |  | 4.12 | 95.7 | > 100 |  | 2.77
14 | Nc1ccc(C(=O)N/C(=C\c2ccc3c(c2)OCO3)c2nc3[nH]c(=S)[nH]c(=O)c3[nH]2)cc1 | > 100 µM |  | > 100 µM | > 100 µM | > 100 | > 100 µM |  | > 100 µM |  |  |  |  |  |  |  |  |  |  |  | 
15 | CCN(CC)CC(C(=O)Nc1c(C)cccc1C)/C(C)=N\NC(=O)C[N+](C)(C)C (stereo not drawn) | > 100 µM | > 100 | > 100 µM | > 100 µM | > 100 | > 100 µM |  | > 100 µM | > 100 | > 100 µM |  |  |  |  |  |  |  |  |  | 
16 | COc1ccc(-n2/c(=N/C(=S)N(C)C)ss/c2=N\C(=S)N(C)C)cc1 | > 100 µM | > 100 | > 100 µM | > 100 µM |  | > 100 µM | > 100 | > 100 µM | 52.6 | > 100 µM |  |  |  |  |  |  |  |  |  | 
17 | c1cc2c(cc1NC1=NCCO1)CCC2 | > 10 µM | > 10 | > 10 µM | > 10 µM | > 10 | > 10 µM |  | > 10 µM | > 10 | > 10 µM |  |  |  |  |  |  |  |  |  | 
18 | Clc1cccc(Cc2cn3cc(-c4ccccc4)nc3s2)c1Cl | > 100 µM | > 100 | > 100 µM | > 100 µM | 16.9 |  |  | > 100 µM |  | > 100 µM | > 100 | > 100 | 27.2 | 59.9 | 2.84 |  |  | > 100 | 14.5 | 
19 | CCOC(=O)COc1cccc2c1C(=O)CCO2 | > 100 µM | > 100 | > 100 µM | > 100 µM |  |  | > 100 | > 100 µM |  | > 100 µM |  |  |  |  |  |  |  |  |  | 
20 | CC1(C)OC(=O)C(=Cc2ccc(O)cc2)C(=O)O1 | > 100 µM | > 100 | > 100 µM | > 100 µM | > 100 | > 100 µM | > 100 | > 100 µM |  | > 100 µM |  |  |  |  |  |  |  |  |  | 
21 | O=C1NNC(=O)c2ccccc2SSc2ccccc2C(=O)NNC(=O)c2ccccc2SSc2ccccc21 | 50 µM and > 100 µM | 23.8 | 50 µM and > 100 µM | 30.2 µM and > 100 µM | > 100 | 50 µM and 32.7 µM |  | 50 µM and 26.6 µM | 50 | 50 µM and > 100 µM | 6.81 |  | 11.3 | 9.81 | > 100 | 3.79 |  | 10 | 7.02 | 
